#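 A five-concentration, 48-hour dose response in 96-well plates underlies each endpoint, interpolated linearly between surrounding concentrations. GI50: concentration for 50% inhibition of growth. TGI marks complete inhibition of growth.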
# Assays:
# Assay in all cases: NCI tumour cell line growth inhibition, 48 h
# SK-MEL-2 melanoma = test system: SK-MEL-2 melanoma
# TK-10 renal = test system: TK-10 renal
# RXF 393 renal = test system: RXF 393 renal
# KM12 colon = test system: KM12 colon
# OVCAR-3 ovarian = test system: OVCAR-3 ovarian
# PC-3 prostate = test system: PC-3 prostate
# SW-620 colon = test system: SW-620 colon
# A498 renal = test system: A498 renal
# BT-549 breast = test system: BT-549 breast
# HT29 colon = test system: HT29 colon
# UACC-257 melanoma = test system: UACC-257 melanoma
# SNB-75 CNS = test system: SNB-75 CNS
# SF-295 CNS = test system: SF-295 CNS
# U251 CNS = test system: U251 CNS
# EKVX NSCLC = test system: EKVX NSCLC
# SNB-19 CNS = test system: SNB-19 CNS
# K-562 leukemia = test system: K-562 leukemia
# NCI-H522 lung = test system: NCI-H522 lung
# SK-OV-3 ovarian = test system: SK-OV-3 ovarian
# HS 578T breast = test system: HS 578T breast
# HOP-62 NSCLC = test system: HOP-62 NSCLC
# NCI/ADR-RES ovarian = test system: NCI/ADR-RES ovarian
# CCRF-CEM leukemia = test system: CCRF-CEM leukemia
# HOP-92 NSCLC = test system: HOP-92 NSCLC
# MDA-MB-231 breast = test system: MDA-MB-231 breast
# HL-60(TB) leukemia = test system: HL-60(TB) leukemia
# IGROV1 ovarian = test system: IGROV1 ovarian
# OVCAR-4 ovarian = test system: OVCAR-4 ovarian
# SN12C renal = test system: SN12C renal
compound,measurement,setting,value
OCc1[nH]nc2cc(Nc3ncc4ccc(Br)c(OC5CCC(O)CC5)c4n3)ccc12 (configuration not stated),GI50,SK-MEL-2 melanoma,0.0476 µM
same,TGI,SK-MEL-2 melanoma,0.213 µM
same,GI50,TK-10 renal,0.0787 µM
same,TGI,TK-10 renal,0.729 µM
same,GI50,RXF 393 renal,0.0193 µM
same,TGI,RXF 393 renal,0.0467 µM
same,GI50,KM12 colon,0.0347 µM
same,TGI,KM12 colon,0.358 µM
same,GI50,OVCAR-3 ovarian,0.0256 µM
same,TGI,OVCAR-3 ovarian,0.171 µM
same,GI50,PC-3 prostate,0.0502 µM
same,TGI,PC-3 prostate,> 100 µM
same,GI50,SW-620 colon,0.0257 µM
same,TGI,SW-620 colon,1.96 µM
same,GI50,A498 renal,0.0495 µM
same,TGI,A498 renal,0.231 µM
same,GI50,BT-549 breast,0.0274 µM
same,TGI,BT-549 breast,0.133 µM
same,GI50,HT29 colon,0.103 µM
same,TGI,HT29 colon,0.487 µM
same,GI50,UACC-257 melanoma,0.234 µM
same,TGI,UACC-257 melanoma,9.78 µM
same,GI50,SNB-75 CNS,0.0359 µM
same,TGI,SNB-75 CNS,0.296 µM
same,GI50,SF-295 CNS,0.0406 µM
same,TGI,SF-295 CNS,0.508 µM
same,GI50,U251 CNS,0.0391 µM
same,TGI,U251 CNS,> 100 µM
same,GI50,EKVX NSCLC,0.0673 µM
same,TGI,EKVX NSCLC,0.414 µM
same,GI50,SNB-19 CNS,0.0258 µM
same,TGI,SNB-19 CNS,> 44.8 µM
same,GI50,K-562 leukemia,0.0788 µM
same,TGI,K-562 leukemia,> 100 µM
same,GI50,NCI-H522 lung,0.202 µM
same,TGI,NCI-H522 lung,0.744 µM
same,GI50,SK-OV-3 ovarian,0.376 µM
same,TGI,SK-OV-3 ovarian,> 100 µM
same,GI50,HS 578T breast,0.0444 µM
same,TGI,HS 578T breast,1.85 µM
same,GI50,HOP-62 NSCLC,0.034 µM
same,TGI,HOP-62 NSCLC,22.8 µM
same,GI50,NCI/ADR-RES ovarian,0.226 µM
same,TGI,NCI/ADR-RES ovarian,12.2 µM
same,GI50,CCRF-CEM leukemia,0.0314 µM
same,TGI,CCRF-CEM leukemia,> 100 µM
same,GI50,HOP-92 NSCLC,0.0922 µM
same,TGI,HOP-92 NSCLC,> 100 µM
same,GI50,MDA-MB-231 breast,0.0301 µM
same,TGI,MDA-MB-231 breast,0.505 µM
same,GI50,HL-60(TB) leukemia,0.0147 µM
same,TGI,HL-60(TB) leukemia,0.105 µM
same,GI50,IGROV1 ovarian,0.0326 µM
same,TGI,IGROV1 ovarian,1.19 µM
same,GI50,OVCAR-4 ovarian,0.0442 µM
same,TGI,OVCAR-4 ovarian,1.76 µM
same,GI50,SN12C renal,0.035 µM
